One may read the ED50 as the midpoint of the dose-response relation.

The subject of assay [1] is E. faecalis ATCC 29212. Description: In vitro MIC, agar dilution. In kind it is cell-based. Conditions: for MIC: Enterococcus faecalis, ATCC29212, read-out: minimum inhibitory concentration (MIC). The procedure, abridged: (§1)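 Test agent, dissolved in PBS pH 7.2 with Tween 20 or DMSO if needed, was mixed into molten Mueller-Hinton agar over a two-fold series topping at 128 μg/mL. Log-phase isolates were then spot-inoculated at ~10^4 cfu and incubated at 35-36 °C for 16-20 hours.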
Background: In agar dilution the substance is mixed into plates at graded concentrations.

The test system of assay [2] is S. aureus ATCC 13709(Meth^S). Description: In vitro MIC, agar dilution. In kind it is cell-based. To be noted: for MIC: Staphylococcus aureus, ATCC13709, S. aureus ATCC 13709(Meth^S), read-out: minimum inhibitory concentration (MIC). The procedure, abridged:
as §1

The test system of assay [3] is S. aureus PC1(Meth^S)(lac^+). In words: In vitro MIC, agar dilution. In kind it is cell-based. To be noted: for MIC: Staphylococcus aureus, read-out: minimum inhibitory concentration (MIC). The procedure, abridged:
as §1

Assay [4] deals with S. haemolyticus 05(Meth^R). In words: In vitro MIC, agar dilution. Conditions: for MIC: Staphylococcus haemolyticus, read-out: minimum inhibitory concentration (MIC). It counts as cell-based. The procedure, abridged:
as §1

Assay [5] concerns E. faecium ATCC 35667. In words: In vitro MIC, agar dilution. In kind it is cell-based. Conditions: for MIC: Enterococcus faecium, ATCC35667, read-out: minimum inhibitory concentration (MIC). The procedure, abridged: as §1
The test system of assay [6] is E. faecalis VanB(Van^R). Description: In vitro MIC, agar dilution. To be noted: for MIC: Enterococcus faecalis, read-out: minimum inhibitory concentration (MIC). It counts as cell-based. The method in brief: as §1
In assay [7] the test system is S. aureus Spain #356(Meth^R). Description: In vitro MIC, agar dilution. It counts as cell-based. Conditions: for MIC: Staphylococcus aureus, read-out: minimum inhibitory concentration (MIC). The method in brief: as §1
The test system of assay [8] is S. aureus 76(Meth^R)(lac^+). In words: In vitro MIC, agar dilution. It counts as cell-based. To be noted: for MIC: Staphylococcus aureus, read-out: minimum inhibitory concentration (MIC). The method in brief: as §1
Assay [9] deals with S. aureus ATCC 33593(Meth^R). Description: In vitro MIC, agar dilution. In kind it is cell-based. Conditions: for MIC: Staphylococcus aureus, ATCC33593, read-out: minimum inhibitory concentration (MIC). The procedure, abridged: as §1
Assay [10] concerns P. aeruginosa ATCC 27853. In words: In vitro MIC, agar dilution. In kind it is cell-based. Conditions: for MIC: Pseudomonas aeruginosa, ATCC27853, read-out: minimum inhibitory concentration (MIC). The method in brief: as §1
Assay [11] has as its system E. coli ATCC 25992. Description: In vitro MIC, agar dilution. In kind it is cell-based. To be noted: for MIC: Escherichia coli, ATCC25992, read-out: minimum inhibitory concentration (MIC). The method in brief:
as §1

The test system of assay [12] is E. faecium VanA(Van^R). In words: In vitro MIC, agar dilution. To be noted: for MIC: Enterococcus faecium, read-out: minimum inhibitory concentration (MIC). It counts as cell-based. The method in brief:
as §1

Assay [13] deals with S. aureus ATCC 29213. Description: In vitro MIC, agar dilution. In kind it is cell-based. Conditions: for MIC: Staphylococcus aureus, ATCC29213, read-out: minimum inhibitory concentration (MIC). The procedure, abridged: as §1
Assay [14] relates to E. faecium A491(Amp^R). In words: In vitro MIC, agar dilution. In kind it is cell-based. To be noted: for MIC: Enterococcus faecium, read-out: minimum inhibitory concentration (MIC). The procedure, abridged:
as §1

Assay [15] concerns S. aureus Col(Meth^R)(lac^-). Description: In vitro MIC, agar dilution. To be noted: for MIC: Staphylococcus aureus, read-out: minimum inhibitory concentration (MIC). It counts as cell-based. The procedure, abridged:
(§2)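 Two-fold dilutions (128 to ≤0.25 μg/mL, in duplicate) were poured into Mueller-Hinton agar. Log-phase broth cultures were spot-inoculated at about 10^4 cfu per spot and incubated 35-36°C for 16-20 hours; the MIC was the lowest concentration inhibiting growth. Col is a high-level PBP2a producer; Col 8A is its isogenic PBP2a-lacking partner.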

Assay [16] has as its system S. aureus Col8A(Meth^S)(lac^-). Description: In vitro MIC, agar dilution. It counts as cell-based. Conditions: S. aureus Col8A(Meth^S)(lac^-); for MIC: Staphylococcus aureus, read-out: minimum inhibitory concentration (MIC). The method in brief: as §2
Assay [17] deals with S. aureus strain ATCC 13709 (methicillin-susceptible). In words: Murine model for lethal bacteremic peritonitis. In kind it is in vivo, female Swiss-Webster mice. Conditions: Staphylococcus aureus, ATCC13709, SC, 72 h; for responders at 1.25 mg/kg: read-out: Survivors (converted); for ED50: two equal doses, IP challenge, read-out: ED50. The method in brief:
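Female Swiss-Webster mice were challenged IP with an LD100 inoculum in 7% hog gastric mucin, then given test drug subcutaneously in twofold increments (0.01–512 mg/kg) as two equal doses at challenge and 2 h later, 10 mice per group. Survival was scored at 72 h; PD50 (total mg/kg) was derived by probit.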

Structures can show the parent of a compound that is named as a salt.

For the compound `NCCSCc1nnsc1SC1=C(C(=O)O)N2C(=O)[C@@H](NC(=O)Cc3ccccc3)[C@H]2SC1.O=C(O)C(F)(F)F` [Cmpd 37, (7R)-7-[(phenylacetyl)amino]-3-(4-(2-aminoethylthiomethyl)-1,2,3-thiadiazol-5-ylthio)-3-cephem-4-carboxylate, trifluoroacetic acid salt], the MIC was 0.25 µg/mL in assay [1]; no more than 0.06 µg/mL in [2]; 1 µg/mL in [3]; 8 µg/mL in assay [4]; 0.5 µg/mL in assay [5]; 0.5 µg/mL in [6]. In addition, the MIC in assay [7] is 8 µg/mL; in assay [8] it was 4 µg/mL; in assay [9], 16 µg/mL; in [10], greater than 32 µg/mL; in [11], greater than 32 µg/mL; in assay [12], 2 µg/mL. The MIC is 0.5 µg/mL in assay [13], greater than 32 µg/mL in assay [14], 0.5 µg/mL in assay [15] and no more than 0.06 µg/mL in assay [16].
As for `NC/C=C\Cc1cnccc1SC1=C(C(=O)O)N2C(=O)[C@@H](NC(=O)/C(=N\O)c3nc(N)sc3Cl)[C@H]2SC1.O=C(O)C(F)(F)F` [Cmpd 50, (7R)-7-[(Z)-2-(2-amino-5-chlorothiazol-4-yl)-2-(hydroxyimino)acetamido]-3-(3-(4-amino-2-Z-buten-1-yl)pyrid-4-ylthio)-3-cephem-4-carboxylate, trifluoroacetic acid salt], the “minimum inhibitory concentration (MIC)” value in assay [1] was found to be 0.13 µg/mL; in [2] (S. aureus ATCC 13709(Meth^S)), 0.13 µg/mL; in assay [3], 0.25 µg/mL; in assay [4], 4 µg/mL; in [5], 1 µg/mL; in assay [6], 0.5 µg/mL. The “minimum inhibitory concentration (MIC)” value in assay [7] is 2 µg/mL; in [8], 2 µg/mL; in [9], 2 µg/mL; in assay [10] it was greater than 32 µg/mL; in assay [11], 4 µg/mL; in [12], 2 µg/mL. Besides, the “minimum inhibitory concentration (MIC)” value came out at 0.13 µg/mL in [13], 16 µg/mL in assay [14], 2 µg/mL in assay [15] and 0.25 µg/mL in [16].
For the compound `N=C(N)SCc1cnccc1SC1=C(C(=O)O)N2C(=O)[C@@H](NC(=O)Cc3ccccc3)[C@H]2SC1` [Cmpd 1, (7R)-7-[(phenylacetyl)amino]-3-(3-isothioureidomethylpyrid-4-ylthio)-3-cephem-4-carboxylate, trifluoroacetic acid salt], the responders at 0.156 mg/kg in [17] (Dose 0.156 mg/kg, read-out: Survivors) was found to be 20%. In addition, the responders at 0.3125 mg/kg in [17] (read-out: Survivors) turned out to be 50%. In assay [17] (read-out: Survivors), the responders at 0.625 mg/kg worked out at 60%. Moreover, in assay [17], the responders at 1.25 mg/kg is 80%. In addition, the responders at 2.5 mg/kg in [17] (read-out: Survivors) amounted to 100%. In addition, the ED50 in assay [17] was found to be 0.39 mg/kg. The MIC in [1] was found to be 1 µg/mL; in assay [3] it was 1 µg/mL; in [4], 16 µg/mL; in assay [5] it was 2 µg/mL; in assay [6], 4 µg/mL; in assay [7], 8 µg/mL. Moreover, the MIC was 8 µg/mL in assay [8]; 8 µg/mL in [9]; greater than 32 µg/mL in assay [10]; greater than 32 µg/mL in assay [11]; 8 µg/mL in assay [12]; 0.13 µg/mL in assay [13]. Further, the MIC in [14] was greater than 32 µg/mL; in [15], 4 µg/mL; in [16] it was no more than 0.06 µg/mL.
`Nc1nc(/C(=N/O)C(=O)N[C@@H]2C(=O)N3C(C(=O)O)=C(Sc4ccncc4CSC[C@H](N)CO)CS[C@H]23)c(Cl)s1` [Cmpd 65, (7R)-7-[(Z)-2-(2-amino-5-chlorothiazol-4-yl)-2-(hydroxyimino)acetamido]-3-[3-(2R-2-amino-3-hydroxyprop-1-ylthiomethyl)pyrid-4-ylthio]-3-cephem-4-carboxylate, trifluoroacetic acid salt]: the responders at 0.3125 mg/kg in assay [17] (read-out: Survivors) amounted to 10%. In [17] (read-out: Survivors), the responders at 0.625 mg/kg was determined as 20%. Besides, the responders at 1.25 mg/kg in assay [17] was 10%. Also, the responders at 2.5 mg/kg in [17] (read-out: Survivors) stood at 30%. Moreover, the responders at 5 mg/kg in assay [17] (Dose 5 mg/kg, read-out: Survivors) is 80%. The ED50 in assay [17] was 3.1 mg/kg. Also, the MIC stood at 0.25 µg/mL in [1]; 0.5 µg/mL in [2]; 1 µg/mL in assay [3]; 4 µg/mL in assay [4]; 0.5 µg/mL in assay [6]; 4 µg/mL in assay [7]. Moreover, the MIC in [8] is 4 µg/mL; in assay [9] it was 4 µg/mL; in assay [10], greater than 32 µg/mL; in [11] it was 16 µg/mL; in assay [12], 2 µg/mL; in assay [13], 0.5 µg/mL. Moreover, the MIC in assay [14] came out at 16 µg/mL; in assay [15], 2 µg/mL; in assay [16], 0.5 µg/mL.
As for `N=C(N)SCc1nnsc1SC1=C(C(=O)O)N2C(=O)[C@@H](NC(=O)Cc3ccccc3)[C@H]2SC1` [Cmpd 2, (7R)-7-[(phenylacetyl)amino]-3-(4-isothioureidomethyl-1,2,3-thiadiazol-5-ylthio)-3-cephem-4-carboxylate, trifluoroacetic acid salt], the MIC in assay [1] was 0.5 µg/mL; in [3], 0.5 µg/mL; in assay [4], 4 µg/mL; in [5] it was 1 µg/mL; in assay [6], 0.5 µg/mL; in assay [7] it was 4 µg/mL. For the same compound, the MIC in assay [8] is 4 µg/mL; in assay [9], 4 µg/mL; in assay [10], greater than 32 µg/mL; in [11], 16 µg/mL; in assay [12] it was 4 µg/mL; in assay [13] it was no more than 0.06 µg/mL. The MIC in assay [14] is greater than 32 µg/mL; in assay [15], 1 µg/mL; in [16] it was no more than 0.06 µg/mL.
`NCCS(=O)(=O)Cc1cnccc1SC1=C(C(=O)O)N2C(=O)[C@@H](NC(=O)/C(=N\O)c3nc(N)sc3Cl)[C@H]2SC1` [Cmpd 45, (7R)-7-[(Z)-2-(2-amino-5-chlorothiazol-4-yl)-2-(hydroxyimino)acetamido]-3-(3-aminoethylsulfonylmethylpyrid-4-ylthio)-3-cephem-4-carboxylate, trifluoroacetic acid salt]: the MIC in assay [1] was 0.13 µg/mL; in assay [2], 2 µg/mL; in assay [3], 2 µg/mL; in assay [4], 8 µg/mL; in [5], 2 µg/mL; in [7], 4 µg/mL. For the same compound, the MIC in assay [8] is 4 µg/mL; in [9], 4 µg/mL; in assay [10], greater than 32 µg/mL; in [11] it was 16 µg/mL; in [12], 4 µg/mL; in assay [13] it was 1 µg/mL. In addition, the MIC in [14] is 16 µg/mL; in [15], 4 µg/mL; in assay [16], 1 µg/mL.

The record behind these values is patent publication US6087355A, “Cephalosporin antibiotics” (Microcide Pharmaceuticals, Inc., priority 1996, dated 2000).
